The text below walks through data of paper PMC10253161, “New 5-Hydroxycoumarin-Based Tyrosyl-DNA Phosphodiesterase I Inhibitors Sensitize Tumor Cell Line to Topotecan” (International Journal of Molecular Sciences, 2023).

The target in data set [1] is T1, TDP1 (Homo sapiens, UniProt Q9NUW8).
T1 construct: made in house
The arrangement: method as in PMID 27658793, PMID 31878088. Particulars: previously found 7-hydroxycoumarin derivatives; cited from earlier work.

Data set [2] deals with HeLa cells. The data set is described as follows: Effect of compounds on topotecan cytotoxicity, MTT test, HeLa. It is filed as cell-based, human. How it is done: (§1) The cytotoxicity of the compounds to HeLa (human cervical cancer) and HEK293A (human embryonic kidney) cell lines was determined using standard colorimetric MTT-test. Cells were seeded in 96-well plates (5000 cells per well) and cultured in DMEM medium (Invitrogen, Carlsbad, CA, USA) supplemented with 10% fetal bovine serum (FBS) (Invitrogen), penicillin (100 units/mL), and streptomycin (100 μg/mL) at 37 °C and 5% CO2 in a humid atmosphere. Control wells contained 1% DMSO. At 30–50% confluence, the tested compounds were added to the medium. To determine the cytotoxicity of Tdp1 inhibitors, the cells were allowed to attach for 24 h and were treated with compounds with concentrations ranging from 1 to 100 μM for 72 h at 37 °C. All measurements were repeated three times.
(§2) To study the effect of the compounds on the cytotoxicity of topotecan, an aqueous solution of topotecan was used at concentrations from 0.2 to 2 μM for HeLa cells and from 0.05 to 0.5 μM for HEK293A cells against the background of 10 μM of the compounds. Cells treated with compounds alone without topotecan were used as controls.
(Tetrazolium assays rely on reduction of a dye to a coloured formazan, in cell work by metabolically active cells.)

A short description of data set [3]: Effect of compounds on topotecan cytotoxicity, MTT test, HEK293A. The class given is cell-based, human. Particulars: human. How it is done: as §1, §2
The target in data set [4] is T1, TDP1. The data set is described as follows: Real-time fluorescence detection of TDP1 activity (FAM/BHQ1 oligonucleotide biosensor). It is filed as biochemical. The source says: To determine the inhibitory properties of the new compounds against TDP1 we used a previously designed real-time oligonucleotide biosensor with 5(6)-carboxyfluorescein (FAM) at the 5′ end and fluorophore quencher BHQ1 (Black Hole Quencher-1) at the 3′-end.
The biosensor, 16-mer DNA oligonucleotide (5′-[FAM] AAC GTC AGGGTC TTC C [BHQ]-3′) was synthesized in the Laboratory of Nucleic Acid Chemistry at the Institute of Chemical Biology and Fundamental Medicine (Novosibirsk, Russia). Real-time fluorescence detection of TDP1 enzyme activity was carried out as described. The recombinant TDP1 was purified as described, using plasmid pET 16B-TDP1, kindly provided by Dr. K.W. Caldecott (University of Sussex, Brighton, UK). To the reaction mixture (200 μL) containing 50 nM oligonucleotide in buffer (50 mM Tris-HCl, pH 8.0, 50 mM NaCl, and 7 mM β-mercaptoethanol), varied concentrations of the tested compounds and purified TDP1 in a final concentration of 1.5 nM were added.
Fluorescence intensity was measured (Ex485/Em520 nm) using POLARstar OPTIMA fluorimeter (BMG LABTECH, GmbH, Ortenberg, Germany) every 1 min for 7 min. The half maximal inhibitory concentrations (IC50) were determined using a six-point concentration response curve and calculated using MARS Data Analysis 2.0 (BMG LABTECH). At least three independent experiments were carried out to obtain the IC50 values.

The nature of data set [5]: Cytotoxicity of compounds, MTT test, HeLa. The class given is cell-based. Particulars: human, HeLa cells, compound alone. How it is done:
as §1

A short description of data set [6]: Cytotoxicity of compounds, MTT test, HEK293A. It is filed as cell-based. Particulars: human, HEK293A cells, compound alone, read-out: CC50 HEK 293A. How it is done:
as §1

Data set [7] deals with HEK293A cells. The data set is described as follows: Effect of compounds on topotecan cytotoxicity, MTT test, HEK293A. Particulars: 10 µM compound, result in words. It is filed as cell-based, human. How it is done: as §1, §2
[8] abbreviates: Table 1, recombinant TDP1 1.5 nM, 50 nM oligonucleotide, read-out: TDP1 inhibitory activities (IC50).
Setting [9] is: Table 2, TDP1 IC50, partly rounded, read-out: IC50.

Broadly, the IC50 is the concentration at which inhibition is half-maximal. The CC50 is the concentration at which the toxic effect on the cells reaches its halfway point. As a reminder, the melting point is the temperature of the solid-liquid transition.

Read-outs that look alike come from different tables or passages of the source.

T1 sequence (Q9NUW8 whole entry): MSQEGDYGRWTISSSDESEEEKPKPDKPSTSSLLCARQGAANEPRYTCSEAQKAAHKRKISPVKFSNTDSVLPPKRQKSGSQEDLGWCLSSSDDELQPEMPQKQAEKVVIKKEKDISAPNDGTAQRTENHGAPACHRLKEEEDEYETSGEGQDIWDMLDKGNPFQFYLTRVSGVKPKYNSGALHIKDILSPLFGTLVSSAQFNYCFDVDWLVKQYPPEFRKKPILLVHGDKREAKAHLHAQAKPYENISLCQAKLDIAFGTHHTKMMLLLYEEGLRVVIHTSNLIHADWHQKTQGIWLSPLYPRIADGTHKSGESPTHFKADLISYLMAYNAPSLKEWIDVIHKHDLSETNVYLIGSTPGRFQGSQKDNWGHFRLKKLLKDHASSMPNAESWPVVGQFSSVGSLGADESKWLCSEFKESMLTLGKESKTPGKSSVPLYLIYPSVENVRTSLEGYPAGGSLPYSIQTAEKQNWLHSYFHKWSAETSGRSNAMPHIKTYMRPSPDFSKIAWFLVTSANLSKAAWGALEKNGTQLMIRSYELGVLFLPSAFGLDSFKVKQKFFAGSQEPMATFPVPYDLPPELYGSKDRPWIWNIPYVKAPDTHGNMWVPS

Take `CC(C)=CCC/C(C)=C/COc1ccc2c(-c3ccc(F)cc3)cc(=O)oc2c1` [compound 12]: the IC50 in data set [1] was 0.6 µM.
`CC[C@@]1(O)C(=O)OCc2c1cc1n(c2=O)Cc2cc3c(CN(C)C)c(O)ccc3nc2-1` [Tpc, topotecan]: the CC50 in data set [2] (Homo sapiens, HeLa, read-out: Tpc CC50 HeLa) was 0.88 ± 0.24 µM; in data set [3] it was 0.04 ± 0.012 µM.
In the case of `CC(C)=CCC/C(C)=C/COc1cccc2oc(=O)c(-c3ccc(F)cc3)c(C)c12` [33a, (E)-5-(3,7-Dimethylocta-2,6-dienyloxy)-3-(4-fluorophenyl)-4-methyl-2H-chromen-2-one], the IC50 in data set [4] (setting [8]) and in data set [4] (setting [9]) was 0.13 ± 0.03 µM each time. Also, the CC50 at 72 h in data set [5] and in data set [6] was more than 100 µM each time. The “Effect on the cytotoxicity of topotecan, HeLa” value in data set [2] (10 µM compound, result in words) is given as “significantly increased cytotoxicity of topotecan”.
In turn, `Cc1c(-c2ccc(Br)cc2)c(=O)oc2cccc(OCC3=CC[C@H]4C[C@@H]3C4(C)C)c12` [34c, 3-(4-Bromophenyl)-5-(((1R,5S)-6,6-dimethylbicyclo[3.1.1]hept-2-en-2-yl)methoxy)-4-methyl-2H-chromen-2-one] displayed a melting point of 148 °C. Also, the IC50 in data set [4] (setting [8]) came to 0.9 ± 0.07 µM. In data set [4] (setting [9]), the IC50 came to 0.9 ± 0.07 µM. Also, the CC50 at 72 h in data set [5] was more than 100 µM. In addition, in data set [6], the CC50 at 72 h is more than 100 µM. In addition, the “Effect on the cytotoxic effect of topotecan, HEK293A” value in data set [7] is on record as “protect cells from the cytotoxic effects of topotecan”.
Take `CC1(C)C2CC=C(COc3ccc4c5c(c(=O)oc4c3)CCC5)C1C2` (stereo not drawn) [compound 11]: the half-maximal inhibitory concentration (IC50) in data set [1] is 0.7 µM.
